In the NIST ThermoML archive (doi:10.1016/j.jct.2004.04.004):
± gives the expanded uncertainty stated by the source.

Key:
[1] = 298.15 K; 101.33 kPa; Liquid
[2] = refractive index (Na D-line) (dimensionless); details: 293.15 K; 101.33 kPa; Liquid; Standard Abbe refractometry

Structure (SMILES)	mass density [1] [kg/m3]	refractive index [2]
Cc1ccccc1C [1,2-dimethylbenzene]	875.73 ± 0.44	1.5057 ± 0.0007
Cc1cccc(C)c1 [1,3-dimethylbenzene]	859.83 ± 0.99	1.4973 ± 0.0008
Cc1ccc(C)cc1 [1,4-dimethylbenzene]	856.58 ± 0.63	1.49577 ± 0.00075
C[S+](C)[O-] [dimethyl sulfoxide]	1095.62 ± 0.39	1.4785 ± 0.0007
